Source: ChEMBL document CHEMBL1150524, “Two novel, potent and selective histamine H3 receptor agonists” (Bioorg Med Chem Lett, 1992)
Calls of active or inactive are those of the source. The rule behind the calls is not given here.

Key:
Assay type in all cases: functional, tissue-based
Histamine H3 receptor = Histamine H3 receptor (Cavia porcellus, UniProt Q9JI35); experiment: Histamine H3 receptor agonist activity was assessed by the inhibition of the electrically evoked twitch response of the guinea-pig ileum.
Histamine H3 receptor, sequence (Q9JI35 whole entry): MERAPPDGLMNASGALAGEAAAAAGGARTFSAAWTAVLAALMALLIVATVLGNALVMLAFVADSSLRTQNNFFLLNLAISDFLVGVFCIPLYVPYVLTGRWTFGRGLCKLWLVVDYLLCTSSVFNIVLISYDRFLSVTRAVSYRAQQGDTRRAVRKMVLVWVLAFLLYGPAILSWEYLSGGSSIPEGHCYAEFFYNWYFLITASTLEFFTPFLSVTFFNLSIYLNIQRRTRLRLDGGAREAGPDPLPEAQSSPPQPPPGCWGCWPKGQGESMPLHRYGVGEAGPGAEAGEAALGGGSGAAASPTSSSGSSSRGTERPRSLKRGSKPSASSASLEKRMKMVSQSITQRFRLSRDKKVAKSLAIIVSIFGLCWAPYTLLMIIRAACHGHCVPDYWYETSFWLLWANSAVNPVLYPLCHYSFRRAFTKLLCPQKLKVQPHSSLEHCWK

[1] = target: Histamine H1 receptor (Cavia porcellus) (UniProt P31389); experiment: Effect on histamine H1 receptor of the guinea-pig ileum, at 10e-5 M concentration; not significant
Histamine H1 receptor (Cavia porcellus), sequence (P31389 whole entry): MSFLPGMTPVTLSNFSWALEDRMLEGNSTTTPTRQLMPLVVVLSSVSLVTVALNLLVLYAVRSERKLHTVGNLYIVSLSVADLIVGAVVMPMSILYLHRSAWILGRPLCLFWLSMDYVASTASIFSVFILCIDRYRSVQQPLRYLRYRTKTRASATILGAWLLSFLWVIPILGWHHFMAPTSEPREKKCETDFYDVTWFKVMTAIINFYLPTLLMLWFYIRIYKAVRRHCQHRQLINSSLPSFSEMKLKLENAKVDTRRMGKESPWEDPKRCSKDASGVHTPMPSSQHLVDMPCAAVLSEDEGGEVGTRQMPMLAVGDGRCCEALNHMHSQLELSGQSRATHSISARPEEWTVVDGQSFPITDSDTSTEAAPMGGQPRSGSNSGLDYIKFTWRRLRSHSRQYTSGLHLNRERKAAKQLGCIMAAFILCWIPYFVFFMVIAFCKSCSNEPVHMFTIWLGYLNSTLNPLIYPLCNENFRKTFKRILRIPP

[2] = target: Histamine H2 receptor (Cavia porcellus) (UniProt P47747); experiment: Effect on histamine H2 receptor of the guinea-pig atrium, at 10e-5 M concentration; not significant; conditions: Cardiac atrium
Histamine H2 receptor (Cavia porcellus), sequence (P47747 whole entry): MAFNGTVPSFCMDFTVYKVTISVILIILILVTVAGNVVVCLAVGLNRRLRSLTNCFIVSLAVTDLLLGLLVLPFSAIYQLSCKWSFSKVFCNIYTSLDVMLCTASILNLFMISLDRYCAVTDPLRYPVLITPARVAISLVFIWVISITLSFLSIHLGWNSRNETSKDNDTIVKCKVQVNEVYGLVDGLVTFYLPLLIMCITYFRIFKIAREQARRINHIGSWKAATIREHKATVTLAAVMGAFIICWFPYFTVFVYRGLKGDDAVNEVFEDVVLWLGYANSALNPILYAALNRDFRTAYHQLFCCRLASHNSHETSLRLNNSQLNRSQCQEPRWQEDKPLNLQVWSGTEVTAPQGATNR

Row | IC50 (Histamine H3 receptor) | Activity [1] | Activity [2] | SMILES
1 | 4.6 nM | – | – | N=C(N)SCCc1cnc[nH]1 [IMETIT]
2 | 1.1 nM | inactive | inactive | N=C(N)CCCc1c[nH]cn1
3 | – | inactive | inactive | N=C(N)SCCc1c[nH]cn1
